Experimental findings from ChEMBL document CHEMBL2424610, “Design, synthesis, and evaluation of 4-(substituted)phenyl-2-thioxo-3,4-dihydro-1H-chromino[4,3-d]pyrimidin-5-one and 4-(substituted)phenyl-3,4-dihydro-1H-chromino[4,3-d]pyrimidine-2,5-dione analogs as antitubercular agents” (Med Chem Res, 2013) are described below.

One may read the IC50 as the concentration at which inhibition is half-maximal.

SMILES strings stand for the structures. Where only a bound is given, the exact number is not on record here.

The first test has as its system Mycobacterium tuberculosis. The test is described as follows: Antitubercular activity against Mycobacterium tuberculosis H37Rv ATCC 27294 assessed as growth inhibition at 128 uM by luminescence-based low oxygen-recovery assay. The class given is functional. Conditions: read-out: GI.
With `COc1ccc(C2NC(=O)Nc3c2c(=O)oc2ccccc32)cc1OC` (stereo not drawn), the inhibition of growth at 128 µM came out at 0%.
On to `COc1ccc(C2NC(=O)Nc3c2c(=O)oc2ccc(C)cc32)cc1` (stereo not drawn), for which the inhibition of growth at 128 µM turned out to be 62%.
For `COc1ccc(C2NC(=O)Nc3c2c(=O)oc2ccc(C)cc32)cc1OC` (stereo not drawn), the inhibition of growth at 128 µM was found to be 35%.
Turning to `COc1cc(C2NC(=O)Nc3c2c(=O)oc2ccccc32)ccc1O` (stereo not drawn), the inhibition of growth at 128 µM is 1%.
For `O=C1Nc2c(c(=O)oc3ccccc23)C(c2ccccc2O)N1` (stereo not drawn), the inhibition of growth at 128 µM turned out to be 37%.
In the case of `O=C1Nc2c(c(=O)oc3ccccc23)C(c2cccc(Br)c2)N1` (stereo not drawn), the inhibition of growth at 128 µM is 15%.
`O=c1oc2ccccc2c2c1C(c1ccccc1)NC(=S)N2` (stereo not drawn): the inhibition of growth at 128 µM was 20%.
Turning to `COc1ccc(C2NC(=S)Nc3c2c(=O)oc2ccccc32)cc1` (stereo not drawn), the inhibition of growth at 128 µM came out at 0%.
In the case of `COc1ccc(C2NC(=S)Nc3c2c(=O)oc2ccccc32)cc1OC` (stereo not drawn), the inhibition of growth at 128 µM is 0%.
`COc1ccc(C2NC(=S)Nc3c2c(=O)oc2ccc(C)cc32)cc1` (stereo not drawn): the inhibition of growth at 128 µM came out at 1%.
In the case of `COc1ccc(C2NC(=S)Nc3c2c(=O)oc2ccc(C)cc32)cc1OC` (stereo not drawn), the inhibition of growth at 128 µM amounted to 14%.
Still for that read-out and setting: the value for `COc1cc(C2NC(=S)Nc3c2c(=O)oc2ccccc32)ccc1O` (stereo not drawn) was 0%; that for `O=c1oc2ccccc2c2c1C(c1cccc(Br)c1)NC(=S)N2` (stereo not drawn) was 59%; that for `Cc1ccc2oc(=O)c3c(c2c1)NC(=S)NC3c1cccc(Br)c1` (stereo not drawn) was 61%.
For `O=C1Nc2c(c(=O)oc3ccccc23)C(c2ccccc2)N1` (stereo not drawn), the inhibition of growth at 128 µM is 17%.
`COc1ccc(C2NC(=O)Nc3c2c(=O)oc2ccccc32)cc1` (stereo not drawn): the inhibition of growth at 128 µM was determined as 4%.

The test system of another test is Mycobacterium tuberculosis. As to the kind of experiment: Antitubercular activity against Mycobacterium tuberculosis H37Rv ATCC 27294 assessed as growth inhibition at 128 uM after 4 days by microplate Alamar blue assay. The class given is functional. Conditions: H37Rv ATCC 27294, 96 h, read-out: GI.
For `COc1ccc(C2NC(=O)Nc3c2c(=O)oc2ccccc32)cc1OC` (stereo not drawn), the inhibition of growth at 128 µM was found to be 0%.
With `COc1ccc(C2NC(=O)Nc3c2c(=O)oc2ccc(C)cc32)cc1` (stereo not drawn), the inhibition of growth at 128 µM amounted to 58%.
The same measure, in the same setting: the value for `COc1ccc(C2NC(=O)Nc3c2c(=O)oc2ccc(C)cc32)cc1OC` (stereo not drawn) was 55%.
With `COc1cc(C2NC(=O)Nc3c2c(=O)oc2ccccc32)ccc1O` (stereo not drawn), the inhibition of growth at 128 µM is 37%.
Consider `O=C1Nc2c(c(=O)oc3ccccc23)C(c2ccccc2O)N1` (stereo not drawn), for which the inhibition of growth at 128 µM stood at 45%.
On to `O=C1Nc2c(c(=O)oc3ccccc23)C(c2cccc(Br)c2)N1` (stereo not drawn), for which the inhibition of growth at 128 µM came to 7%.
Turning to `O=c1oc2ccccc2c2c1C(c1ccccc1)NC(=S)N2` (stereo not drawn), the inhibition of growth at 128 µM was determined as 10%.
For the compound `COc1ccc(C2NC(=S)Nc3c2c(=O)oc2ccccc32)cc1` (stereo not drawn), the inhibition of growth at 128 µM was 0%.
As for `COc1ccc(C2NC(=S)Nc3c2c(=O)oc2ccccc32)cc1OC` (stereo not drawn), the inhibition of growth at 128 µM is 0%.
Same read-out and setting: next, `COc1ccc(C2NC(=S)Nc3c2c(=O)oc2ccc(C)cc32)cc1` (stereo not drawn): 0%; `COc1ccc(C2NC(=S)Nc3c2c(=O)oc2ccc(C)cc32)cc1OC` (stereo not drawn): 9%.
As to `COc1cc(C2NC(=S)Nc3c2c(=O)oc2ccccc32)ccc1O` (stereo not drawn), the inhibition of growth at 128 µM came to 0%.
On to `O=c1oc2ccccc2c2c1C(c1cccc(Br)c1)NC(=S)N2` (stereo not drawn), for which the inhibition of growth at 128 µM was found to be 12%.
With `Cc1ccc2oc(=O)c3c(c2c1)NC(=S)NC3c1cccc(Br)c1` (stereo not drawn), the inhibition of growth at 128 µM stood at 32%.
On the same count and under the same terms, next, `O=C1Nc2c(c(=O)oc3ccccc23)C(c2ccccc2)N1` (stereo not drawn): 0%; `COc1ccc(C2NC(=O)Nc3c2c(=O)oc2ccccc32)cc1` (stereo not drawn): 8%.

The next test has as its system Vero. The test is described as follows: Cytotoxicity against african green monkey Vero cells. The class given is cell-based. As to conditions: Chlorocebus sabaeus.
`COc1ccc(C2NC(=O)Nc3c2c(=O)oc2ccccc32)cc1OC` (stereo not drawn) displayed an IC50 of more than 128 µM.
With `COc1ccc(C2NC(=O)Nc3c2c(=O)oc2ccc(C)cc32)cc1` (stereo not drawn), half-maximal inhibition (IC50) was put at 101 µM.
Same read-out and setting: next, `COc1ccc(C2NC(=O)Nc3c2c(=O)oc2ccc(C)cc32)cc1OC` (stereo not drawn): more than 128 µM.
In turn, `COc1cc(C2NC(=O)Nc3c2c(=O)oc2ccccc32)ccc1O` (stereo not drawn) yielded an IC50 of more than 128 µM.
Compound `O=C1Nc2c(c(=O)oc3ccccc23)C(c2ccccc2O)N1` (stereo not drawn) returned an IC50 of 122 µM.
`O=C1Nc2c(c(=O)oc3ccccc23)C(c2cccc(Br)c2)N1` (stereo not drawn): the IC50 stood at 106 µM.
`O=c1oc2ccccc2c2c1C(c1ccccc1)NC(=S)N2` (stereo not drawn) came in with an IC50 of more than 128 µM.
Still for that read-out and setting: the value for `COc1ccc(C2NC(=S)Nc3c2c(=O)oc2ccccc32)cc1` (stereo not drawn) was more than 128 µM; that for `COc1ccc(C2NC(=S)Nc3c2c(=O)oc2ccccc32)cc1OC` (stereo not drawn) was more than 128 µM.
Regarding `COc1ccc(C2NC(=S)Nc3c2c(=O)oc2ccc(C)cc32)cc1` (stereo not drawn), the IC50 was more than 128 µM.
For the compound `COc1ccc(C2NC(=S)Nc3c2c(=O)oc2ccc(C)cc32)cc1OC` (stereo not drawn), the IC50 was more than 128 µM.
As for `COc1cc(C2NC(=S)Nc3c2c(=O)oc2ccccc32)ccc1O` (stereo not drawn), the IC50 was more than 128 µM.
For `O=c1oc2ccccc2c2c1C(c1cccc(Br)c1)NC(=S)N2` (stereo not drawn), it took 47.4 µM to reach half-maximal inhibition (IC50).
`Cc1ccc2oc(=O)c3c(c2c1)NC(=S)NC3c1cccc(Br)c1` (stereo not drawn) gave an IC50 of 47.6 µM.
`O=C1Nc2c(c(=O)oc3ccccc23)C(c2ccccc2)N1` (stereo not drawn) showed an IC50 of 84.7 µM.
`COc1ccc(C2NC(=O)Nc3c2c(=O)oc2ccccc32)cc1` (stereo not drawn) came in with an IC50 of 119 µM.
